SMILES strings stand for the structures.

Format in all cases: cell-based
One data set relates to Ba/F3 (L858R + T790M). Description: Cellular growth inhibition assay (CellTiter-Glo), Ba/F3 (L858R+T790M). Particulars: Mus musculus, BaF3, 72 h; 3 days of incubation. As to the method: (§1) Example E. Cellular Growth Inhibition Assay
(§2) Ba/F3(Empty vector) (Signosis), Ba/F3(Wild type) (Signosis), Ba/F3(L^858R+T790M) (Signosis), Ba/F3(A767_dupASV) (Signosis), Ba/F3(D770_N771insSVD) (Signosis), Ba/F3(H773_V774insNPH) (Signosis) were seeded at a density of 4000 cells per well in a CellBIND® 384-well Flat Clear Bottom Black Polystyrene Microplates (Coming, USA, Cat #3770) in 45 μl total volume of RPMI (PanEco, Cat #C330, Russia) with […] (HyClone, Cat #SV30160.03) and with 10 ng/ml rmIL-3 (RD systems, USA, Cat #403-ML-025) (for BaBF3(Empty vector)) and with 10 ng/ml rhEGF (ThermoFisher, USA, Cat #PHG0311L) (for BaCF3(Wild type)). 500× compounds solutions in DMSO (Sigma Cat #D2650) were prepared into Cmpnds plate (DiamondWell Plate, Axigen, Cat #P-384-120SQ-C—S) and DMSO only control was included. 1.l of 500× compounds (Cmpnds plate) was added to 49 µl of culture medium into Dilution plate (Diamond Well Plate, Axigen, Cat #P-384-120SQ-C—S), mixed and then 5 μl of 10× compounds solutions were transferred to cells followed by centrifugation at 100 g for 1 min. Final DMSO concentration was 0.2% o. After 3 days of incubation 10.l of CellTiter-Glo (Promega, CAT #G7572) were added to the cells, plate was centrifuged at 100 g for 1 min and luminescence signal was measured using Microplate Reader (CLARIOStar).
A general note: ATP-based viability assays read luminescence as a measure of living cells.

Data set [1] can be described thus: Cellular growth inhibition assay (CellTiter-Glo), Ba/F3 (Empty vector). The conditions noted are these: mouse, Ba/F3 cells with empty vector; Ba/F3 (Empty vector) with 10 ng/ml rmIL-3, 3 days of incubation. As to the method: as §1, §2
The next data set relates to Ba/F3 (A767_dupASV). Description: Cellular growth inhibition assay (CellTiter-Glo), Ba/F3 (A767_dupASV). The conditions noted are these: Mus musculus, BaF3, 72 h; 3 days of incubation; read-out: Ba/F3 (A767_dup ASV) CC50. The method, then:
as §1, §2

A further data set deals with Ba/F3 (D770_N771insSVD). As to the kind of experiment: Cellular growth inhibition assay (CellTiter-Glo), Ba/F3 (D770_N771insSVD). Particulars: Mus musculus, BaF3, 72 h; 3 days of incubation; read-out: Ba/F3 (D770_N771 insSVD) CC50. As to the method:
as §1, §2

Another data set deals with Ba/F3 (H773_V774insSVD). Description: Cellular growth inhibition assay (CellTiter-Glo), Ba/F3 (H773_V774insSVD). Particulars: Mus musculus, BaF3, 72 h; 3 days of incubation; read-out: Ba/F3 (H773_V774 insSVD) CC50.

With `COc1c(F)cccc1Nc1c2[nH]c3c1C(=O)NC[C@@H]3CCCN1CC[C@@H](COc3cnccc3-2)C1` (stereo in doubt) [Compound 162, 20-[(3-Fluoro-2-methoxyphenyl)amino]-6,7,8,9,11,12,13,13a,14,15-decahydro-7,10-methano-17,19-methenodipyrido[3,4-b:4′,3′-f][1,5,11]oxadiazacyclopentadecin-16(18H)-one], the CC50 in the data set with Ba/F3 (L858R + T790M), in the data set on Ba/F3 (A767_dupASV), with Ba/F3 (D770_N771insSVD) and in the data set with Ba/F3 (H773_V774insSVD) was above 10 µM in each case. In addition, the CC50 at 3 days in data set [1] was above 10 µM.
As to `COc1c(F)cccc1Nc1c2[nH]c3c1C(=O)NC[C@H]3CCCN1CC[C@@H](COc3cnccc3-2)C1` (stereo in doubt) [Compound 163, 20-[(3-Fluoro-2-methoxyphenyl)amino]-6,7,8,9,11,12,13,13a,14,15-decahydro-7,10-methano-17,19-methenodipyrido[3,4-b:4′,3′-f][1,5,11]oxadiazacyclopentadecin-16(18H)-one], the CC50 is above 10 µM with Ba/F3 (L858R + T790M), 0.01 to 0.1 µM with Ba/F3 (A767_dupASV), 0.1 to 1 µM in the data set on Ba/F3 (D770_N771insSVD) and 0.1 to 1 µM in the data set with Ba/F3 (H773_V774insSVD). Besides, the CC50 at 3 days in data set [1] is above 10 µM.
For the compound `COc1c(F)cccc1Nc1c2[nH]c3c1C(=O)NCC3CCCN1CCCC(COc3cnccc3-2)C1` (centres unmarked) [Compound 12, 21-[(3-Fluoro-2-methoxyphenyl)amino]-7,8,9,10,12,13,14,14a,15,16-decahydro-6H-7,11-methano-18,20-methenodipyrido[3,4-b:4′,3′-f][1,5,11]oxadiazacyclohexadecin-17(19H)-one], the CC50 with Ba/F3 (L858R + T790M) is above 10 µM; with Ba/F3 (A767_dupASV), 0.1 to 1 µM; in the data set with Ba/F3 (D770_N771insSVD), 1 to 10 µM; in the data set on Ba/F3 (H773_V774insSVD), above 10 µM. In data set [1], this compound yielded a CC50 at 3 days above 10 µM.
Turning to `COc1c(F)cccc1Nc1c2[nH]c3c1C(=O)NCC3CCCCCOc1cnccc1-2` (centres unmarked) [Compound 101, 1^3-((3-Fluoro-2-methoxyphenyl)amino)-1^4,1^5,1^6,1^7-tetrahydro-l^1H-3-oxa-1(2,7)-pyrrolo[3,2-c]pyridina-2(4,3)-pyridinacyclooctaphan-1^4-one], the CC50 in the data set on Ba/F3 (L858R + T790M) lay in the range of 1 to 10 µM; with Ba/F3 (A767_dupASV), 0.01 to 0.1 µM; in the data set on Ba/F3 (D770_N771insSVD) it was 0.1 to 1 µM; with Ba/F3 (H773_V774insSVD), 0.1 to 1 µM. The CC50 at 3 days in data set [1] is above 10 µM.
On to `COc1c(F)cccc1Nc1c2[nH]c3c1C(=O)NCC3CCCCN1CC(COc3cnccc3-2)C1` (centres unmarked) [Compound 123, 20-(3-fluoro-2-methoxyanilino)-7,8,11,12,13,13a,14,15-octahydro-6H,10H-7,9-methano-17,19-(metheno)dipyrido[3,4-b: 4′,3′-f][1,5,12]oxadiazacyclopentadecin-16(18H)-one], for which the CC50 with Ba/F3 (L858R + T790M) is 0.1 to 1 µM; with Ba/F3 (A767_dupASV), 0.001 to 0.01 µM; with Ba/F3 (D770_N771insSVD), 0.01 to 0.1 µM; in the data set with Ba/F3 (H773_V774insSVD), 0.1 to 1 µM. In data set [1], this compound came in with a CC50 at 3 days of 1 to 10 µM.
Regarding `COc1c(F)cccc1Nc1c2[nH]c3c1C(=O)NC(CCCCOCCOc1cnccc1-2)C3` (centres unmarked) [Compound 133, 20-(3-fluoro-2-methoxyanilino)-2,3,5,6,7,8,9,10-octahydro-9,13-methano-12,15-(metheno)pyrido[3,4-e][1,4,8,12]dioxadiazacycloheptadecin-11(14H)-one], the CC50 was above 10 µM in the data set on Ba/F3 (L858R + T790M), 1 to 10 µM in the data set with Ba/F3 (A767_dupASV), above 10 µM in the data set with Ba/F3 (D770_N771insSVD) and above 10 µM in the data set with Ba/F3 (H773_V774insSVD). In data set [1], the CC50 at 3 days was above 10 µM.
As for `COc1c(F)cccc1Nc1c2[nH]c3c1C(=O)NCC3CC=CCN1CCC(CC1)COc1cnccc1-2` (centres unmarked) [Compound 135, 21-(3-fluoro-2-methoxyanilino)-6,7,8,9,14,14a,15,16-octahydro-11H-7,10-ethano-18,20-(metheno)dipyrido[3,4-b: 4′,3′-f][1,5,12]oxadiazacyclohexadecin-17(19H)-one], the CC50 in the data set with Ba/F3 (L858R + T790M), in the data set with Ba/F3 (A767_dupASV), with Ba/F3 (D770_N771insSVD) and in the data set on Ba/F3 (H773_V774insSVD) was above 10 µM in each case. The CC50 at 3 days in data set [1] is above 10 µM.
For the compound `COc1c(F)cccc1Nc1c2[nH]c3c1C(=O)NCC3CCCCN1CCC(CC1)COc1cnccc1-2` (centres unmarked) [Compound 136, 21-[(3-Fluoro-2-methoxyphenyl)amino]-6,7,8,9,12,13,14,14a,15,16-decahydro-11H-7,10-ethano-18,20-methenodipyrido[3,4-b:4′,3′-f][1,5,12]oxadiazacyclohexadecin-17(19H)-one], the CC50 with Ba/F3 (L858R + T790M) is above 10 µM; with Ba/F3 (A767_dupASV), 1 to 10 µM; with Ba/F3 (D770_N771insSVD), above 10 µM; with Ba/F3 (H773_V774insSVD), above 10 µM. Also, the CC50 at 3 days in data set [1] is above 10 µM.
As for `COc1c(F)cccc1Nc1c2[nH]c3c1C(=O)NCC3CCCOCCCCCCN1CCC(CC1)Oc1cnccc1-2` (centres unmarked) [Compound 137, 28-(3-fluoro-2-methoxyanilino)-1,2,13,14,16,17,18,19,20,21,23,24,25,25a-tetradecahydro-12H-12,15-ethano-4,6-(metheno)dipyrido[3,4-b: 4′,3′-f][1,11,5,18]dioxadiazacyclohenicosin-3(5H)-one], the CC50 with Ba/F3 (L858R + T790M) was 1 to 10 µM; with Ba/F3 (A767_dupASV), 0.1 to 1 µM; in the data set with Ba/F3 (D770_N771insSVD) it was 1 to 10 µM; in the data set with Ba/F3 (H773_V774insSVD) it was 1 to 10 µM. In addition, the CC50 at 3 days in data set [1] was above 10 µM.
As to `COc1c(F)cccc1Nc1c2[nH]c3c1C(=O)NCC3CC(=O)N1CC(CCOc3cnccc3-2)C1` (centres unmarked) [Compound 139, 19-(3-fluoro-2-methoxyanilino)-6,7,8,9,12,12a,13,14-octahydro-11H-8,10-methano-16,18-(metheno)dipyrido[3,4-b: 4′,3′-f][1,5,10]oxadiazacyclotetradecine-11,15(17H)-dione], the CC50 with Ba/F3 (L858R + T790M) was above 10 µM; in the data set with Ba/F3 (A767_dupASV), 0.1 to 1 µM; in the data set on Ba/F3 (D770_N771insSVD), 1 to 10 µM; in the data set on Ba/F3 (H773_V774insSVD), 1 to 10 µM. In addition, the CC50 at 3 days in data set [1] is above 10 µM.
Take `COc1c(F)cccc1Nc1c2[nH]c3c1C(=O)NCC3CC(=O)N[C@@H](C)C(=O)NCCCOc1cnccc1-2` (stereo partly drawn) [Compound 140, (11S)-21-(3-fluoro-2-methoxyanilino)-11-methyl-6,7,8,9,11,12,14,14a,15,16-decahydro-18,20-(metheno)dipyrido[3,4-k: 4′,3′-o][1,5,8,13]oxatriazacyclohexadecine-10,13,17(19H)-trione]: the CC50 is above 10 µM in the data set with Ba/F3 (L858R + T790M), 1 to 10 µM in the data set with Ba/F3 (A767_dupASV), above 10 µM in the data set on Ba/F3 (D770_N771insSVD) and above 10 µM with Ba/F3 (H773_V774insSVD). The compound also displayed a CC50 at 3 days in data set [1] above 10 µM.
As to `COc1c(F)cccc1Nc1c2[nH]c3c1C(=O)NCC3CC(=O)N[C@H](C)C(=O)NCCCOc1cnccc1-2` (stereo partly drawn) [Compound 141, (11R)-21-(3-fluoro-2-methoxyanilino)-11-methyl-6,7,8,9,11,12,14,14a,15,16-decahydro-18,20-(metheno)dipyrido[3,4-k: 4′,3′-o][1,5,8,13]oxatriazacyclohexadecine-10,13,17(19H)-trione], the CC50 with Ba/F3 (L858R + T790M) was above 10 µM; with Ba/F3 (A767_dupASV), 0.1 to 1 µM; in the data set on Ba/F3 (D770_N771insSVD), 1 to 10 µM; in the data set on Ba/F3 (H773_V774insSVD), above 10 µM. In data set [1], this compound gave a CC50 at 3 days above 10 µM.
On to `COc1c(F)cccc1Nc1c2[nH]c3c1C(=O)NCC3CCCOCCNCCCOc1cnccc1-2` (centres unmarked) [Compound 143, 22-(3-fluoro-2-methoxyanilino)-6,7,8,9,10,11,13,14,15,15a,16,17-dodecahydro-19,21-(metheno)dipyrido[3,4-i: 4′,3′-m][1,8,4,12]dioxadiazacycloheptadecin-18(20H)-one], for which the CC50 with Ba/F3 (L858R + T790M), in the data set with Ba/F3 (A767_dupASV), in the data set on Ba/F3 (D770_N771insSVD) and in the data set with Ba/F3 (H773_V774insSVD) was above 10 µM in each case. This compound displayed a CC50 at 3 days in data set [1] above 10 µM.
